Assays:
[1] = target: T1, recombinant human TYRO3 (Homo sapiens, UniProt Q06418); experiment: Biochemical potency, HTRF KinEASE-TK kinase assay; details: 1 nM TYRO3, 700 μM ATP
T1 construct: purchased Invitrogen
T1 sequence (Q06418 41-890): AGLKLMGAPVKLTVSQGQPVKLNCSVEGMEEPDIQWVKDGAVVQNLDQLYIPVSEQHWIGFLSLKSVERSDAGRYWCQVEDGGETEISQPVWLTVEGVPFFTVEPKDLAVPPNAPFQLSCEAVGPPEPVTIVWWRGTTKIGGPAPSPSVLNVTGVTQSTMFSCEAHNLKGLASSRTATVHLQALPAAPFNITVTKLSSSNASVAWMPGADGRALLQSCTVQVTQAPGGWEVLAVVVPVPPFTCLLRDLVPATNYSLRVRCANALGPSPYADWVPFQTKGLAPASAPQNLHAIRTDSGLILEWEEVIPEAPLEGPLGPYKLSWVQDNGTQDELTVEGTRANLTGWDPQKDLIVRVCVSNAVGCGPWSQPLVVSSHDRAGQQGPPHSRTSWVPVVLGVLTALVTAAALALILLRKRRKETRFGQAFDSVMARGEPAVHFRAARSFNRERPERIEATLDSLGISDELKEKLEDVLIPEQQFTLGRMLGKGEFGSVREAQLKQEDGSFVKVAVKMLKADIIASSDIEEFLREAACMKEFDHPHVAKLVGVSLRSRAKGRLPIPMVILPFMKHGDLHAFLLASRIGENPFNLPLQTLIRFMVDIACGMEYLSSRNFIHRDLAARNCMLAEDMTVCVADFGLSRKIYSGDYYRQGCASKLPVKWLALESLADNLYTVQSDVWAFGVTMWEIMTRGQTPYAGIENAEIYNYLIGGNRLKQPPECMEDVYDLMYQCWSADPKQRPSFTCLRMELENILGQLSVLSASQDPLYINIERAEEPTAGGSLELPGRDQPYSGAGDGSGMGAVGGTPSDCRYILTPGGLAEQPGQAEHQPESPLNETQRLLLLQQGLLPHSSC
Experimental: (§1) Measurement of Biochemical Compound Potency of Axl Inhibitors
(§2) Purified recombinant human AXL, TYRO3 and MER proteins were purchased from Invitrogen™. 10 nM AXL, 2 nM TYRO3 or MER were incubated with varying concentrations of compounds in 50 mM HEPES, pH 7.4, 10 mM MgCl2, 0.01% BSA, 1 mM DTT and 2% DMSO in a total volume of 20 μl in a 384-well microplate (Corning™ #3640) at RT for 1 h. The AXL, TYRO3 and MER enzymatic reaction was initiated by transferring 10 μl of enzyme and compound mixture into 10 μl of 1.6 μM TK Substrate-biotin (HTRF® KinEASE-TK kit, Cisbio) and 1400 μM ATP pre-incubated in 50 mM HEPES, pH 7.4, 10 mM MgCl2, 0.01% BSA, 1 mM DTT in a 384-well microplate (Corning™ #3640) at RT, giving the final reaction conditions: 5 nM AXL, 1 nM TYRO3 or MER, 800 nM TK Substrate-biotin and 700 μM ATP in 50 mM HEPES, pH 7.4, 10 mM MgCl2, 0.01% BSA, 1 mM DTT and 1% DMSO with varying concentrations of compounds. Following 2 h incubation at RT, the AXL, TYRO3 and MER enzymatic reaction was stopped by transfer of 10 μl of reaction into 10 μl of detection mix (400 nM Streptavidin-XL665, 200-fold dilution TK Antibody-Cryptate and detection buffer, HTRF® KinEASE-TK kit, Cisbio) in a white 384-well microplate (Perkin Elmer, OptiPlate 384). After 1 h incubation at RT, the plate was put into a plate reader (Evision) to read at 665/620 nm (acceptor/donor) for HTRF. The value of the DMSO blank (MIN inhibition=100% activity) was used as a negative control. The positive control was established by adding 5 μl of enzyme and DMSO mixture into 10 μl of detection mix followed by addition of 5 μl of TK Substrate-biotin and ATP mixture (MAX inhibition=0% activity). To calculate the percent activity, Equation 1 was used. Ratio665/620 is the value at a given compound concentration: […]

[2] = target: T2, recombinant human MER (Homo sapiens, UniProt Q12866); experiment: Biochemical potency, HTRF KinEASE-TK kinase assay; details: 1 nM MER, 700 μM ATP
T2 construct: purchased Invitrogen
T2 sequence (Q12866 21-999): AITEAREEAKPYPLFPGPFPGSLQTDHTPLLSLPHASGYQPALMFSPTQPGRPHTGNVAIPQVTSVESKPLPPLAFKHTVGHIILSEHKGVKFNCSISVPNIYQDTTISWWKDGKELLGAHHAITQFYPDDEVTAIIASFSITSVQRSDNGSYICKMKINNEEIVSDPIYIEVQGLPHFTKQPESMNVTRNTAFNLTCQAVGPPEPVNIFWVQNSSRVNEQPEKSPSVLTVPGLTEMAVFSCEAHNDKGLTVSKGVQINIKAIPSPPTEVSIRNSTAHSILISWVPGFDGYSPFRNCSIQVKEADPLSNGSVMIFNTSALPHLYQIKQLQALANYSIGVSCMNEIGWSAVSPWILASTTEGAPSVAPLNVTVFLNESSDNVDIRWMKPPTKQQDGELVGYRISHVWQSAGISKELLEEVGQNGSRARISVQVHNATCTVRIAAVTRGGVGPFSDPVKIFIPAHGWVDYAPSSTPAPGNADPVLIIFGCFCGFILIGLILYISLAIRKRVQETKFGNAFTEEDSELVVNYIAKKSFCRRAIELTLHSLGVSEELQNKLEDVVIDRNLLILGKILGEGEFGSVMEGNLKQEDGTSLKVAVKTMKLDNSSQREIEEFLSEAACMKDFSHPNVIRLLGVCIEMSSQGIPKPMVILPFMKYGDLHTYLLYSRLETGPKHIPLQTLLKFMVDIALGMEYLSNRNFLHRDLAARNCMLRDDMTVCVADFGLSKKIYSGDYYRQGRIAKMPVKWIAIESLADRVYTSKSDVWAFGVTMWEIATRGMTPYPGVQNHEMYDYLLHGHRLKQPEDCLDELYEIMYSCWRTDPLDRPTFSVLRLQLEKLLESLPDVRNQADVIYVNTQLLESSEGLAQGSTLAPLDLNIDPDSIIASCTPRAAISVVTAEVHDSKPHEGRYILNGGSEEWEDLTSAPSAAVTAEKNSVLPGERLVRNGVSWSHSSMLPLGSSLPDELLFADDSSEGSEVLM
Experimental: as §1, §2

IC50 [1]	IC50 [2]	SMILES
< 100 nM	< 100 nM	C[C@@H]1CCCN1[C@@]1(C)CCc2ccc(-c3cnc4[nH]nc(-c5ccc(-c6ncnn6C)cc5)c4c3)cc2CC1 [Example 112, 1-Methyl-5-(4-{5-[(7S)-7-methyl-7-[(2R)-2-methylpyrrolidin-1-yl]-6,7,8,9-tetrahydro-5H-benzo[7]annulen-2-yl]-1H-pyrazolo[3,4-b]pyridin-3-yl}phenyl)-1H-1,2,4-triazole]
> 1000 nM	> 1000 nM	CN(C)C(=O)c1cccc(-c2ccc(-c3n[nH]c4ncc(-c5ccc6c(c5)CC[C@@H](N5C7COCC5C7)CC6)cc34)cc2)n1 [Example 94, N,N-Dimethyl-6-(4-{5-[(7S)-7-{3-oxa-6-azabicyclo[3.1.1]heptan-6-yl}-6,7,8,9-tetrahydro-5H-benzo[7]annulen-2-yl]-2H-pyrazolo[3,4-b]pyridin-3-yl}phenyl)pyridine-2-carboxamide]
100 to 1000 nM	100 to 1000 nM	O=C(c1cccnc1-c1ccc(-c2c[nH]c3ncc(-c4ccc5c(c4)CC[C@@H](N4C6COCC4C6)CC5)cc23)cc1)N1CCCC1 [Example 171, 6-[(7S)-2-(3-{4-[3-(Pyrrolidine-1-carbonyl)pyridin-2-yl]phenyl}-1H-pyrrolo[2,3-b]pyridin-5-yl)-6,7,8,9-tetrahydro-5H-benzo[7]annulen-7-yl]-3-oxa-6-azabicyclo[3.1.1]heptane]
< 100 nM	100 to 1000 nM	Cc1nc(-c2ccc(-c3n[nH]c4ncc(-c5ccc6c(c5)CC[C@@H](N5C7COCC5C7)CC6)cc34)cc2)n(C)n1 [Example 23, 6-[(7S)-2-{3-[4-(1,3-Dimethyl-1H-1,2,4-triazol-5-yl)phenyl]-1H-pyrazolo[3,4-b]pyridin-5-yl}-6,7,8,9-tetrahydro-5H-benzo[7]annulen-7-yl]-3-oxa-6-azabicyclo[3.1.1]heptane]
100 to 1000 nM	100 to 1000 nM	c1ccc(-n2cc(-c3n[nH]c4ncc(-c5ccc6c(c5)CC[C@@H](N5C7COCC5C7)CC6)cc34)cn2)nc1 [Example 168, 6-[(7S)-2-{3-[1-(Pyridin-2-yl)-1H-pyrazol-4-yl]-1H-pyrazolo[3,4-b]pyridin-5-yl}-6,7,8,9-tetrahydro-5H-benzo[7]annulen-7-yl]-3-oxa-6-azabicyclo[3.1.1]heptane]
< 100 nM	100 to 1000 nM	CN(C)C(=O)c1cccnc1-c1ccc(-c2n[nH]c3ncc(-c4ccc5c(c4)CC[C@@H](N4C6COCC4C6)CC5)cc23)cc1 [Example 167, N,N-Dimethyl-2-(4-{5-[(7S)-7-{3-oxa-6-azabicyclo[3.1.1]heptan-6-yl}-6,7,8,9-tetrahydro-5H-benzo[7]annulen-2-yl]-1H-pyrazolo[3,4-b]pyridin-3-yl}phenyl)pyridine-3-carboxamide]
< 100 nM	< 100 nM	Cn1ccnc1-c1ccc(-c2n[nH]c3ncc(-c4ccc5c(c4)CC[C@@H](N4C6COCC4C6)CC5)cc23)cc1 [Example 111, 6-[(7S)-2-{3-[4-(1-Methyl-1H-imidazol-2-yl)phenyl]-1H-pyrazolo[3,4-b]pyridin-5-yl}-6,7,8,9-tetrahydro-5H-benzo[7]annulen-7-yl]-3-oxa-6-azabicyclo[3.1.1]heptane]
< 100 nM	< 100 nM	COC[C@H]1CCN([C@H]2CCc3ccc(-c4cnc5[nH]nc(-c6ccc(-c7ncccc7C)cc6)c5c4)cc3CC2)C1 [Example 132, 2-(4-{5-[(7S)-7-[(3S)-3-(Methoxymethyl)pyrrolidin-1-yl]-6,7,8,9-tetrahydro-5H-benzo[7]annulen-2-yl]-1H-pyrazolo[3,4-b]pyridin-3-yl}phenyl)-3-methylpyridine]
< 100 nM	< 100 nM	CC(C)(O)c1cccnc1-c1ccc(-c2c[nH]c3ncc(-c4ccc5c(c4)CC[C@@H](N4C6COCC4C6)CC5)cc23)cc1 [Example 95, 2-[2-(4-{5-[(7S)-7-{3-Oxa-6-azabicyclo[3.1.1]heptan-6-yl}-6,7,8,9-tetrahydro-5H-benzo[7]annulen-2-yl]-1H-pyrrolo[2,3-b]pyridin-3-yl}phenyl)pyridin-3-yl]propan-2-ol]
< 100 nM	100 to 1000 nM	Cc1cc(F)cnc1-c1ccc(-c2n[nH]c3ncc(-c4ccc5c(c4)CC[C@@H](N4C6COCC4C6)CC5)cc23)cc1 [Example 28, 6-[(7S)-3-[3-[4-(5-Fluoro-3-methylpyridin-2-yl)phenyl]-1H-pyrazolo[3,4-b]pyridin-5-yl]-6,7,8,9-tetrahydro-5H-benzo[7]annulen-7-yl]-3-oxa-6-azabicyclo[3.1.1]heptane]
< 100 nM	100 to 1000 nM	COc1cccnc1-c1ccc(-c2n[nH]c3ncc(-c4ccc5c(c4)CC[C@@H](N4C6COCC4C6)CC5)cc23)cc1 [Example 166, 6-[(7S)-2-{3-[4-(3-Methoxypyridin-2-yl)phenyl]-1H-pyrazolo[3,4-b]pyridin-5-yl}-6,7,8,9-tetrahydro-5H-benzo[7]annulen-7-yl]-3-oxa-6-azabicyclo[3.1.1]heptane]
< 100 nM	> 1000 nM	Cc1cc(-c2ncccc2C)ccc1-c1n[nH]c2ncc(-c3ccc4c(c3)CC[C@@H](N3C5COCC3C5)CC4)cc12 [Example 30, 6-[(7S)-3-[3-[2-Methyl-4-(3-methylpyridin-2-yl)phenyl]-1H-pyrazolo[3,4-b]pyridin-5-yl]-6,7,8,9-tetrahydro-5H-benzo[7]annulen-7-yl]-3-oxa-6-azabicyclo[3.1.1]heptane]
< 100 nM	100 to 1000 nM	O=C1CCCN1c1cccnc1-c1ccc(-c2c[nH]c3ncc(-c4ccc5c(c4)CC[C@@H](N4C6COCC4C6)CC5)cc23)cc1 [Example 7, 1-[2-(4-{5-[(7S)-7-{3-Oxa-6-azabicyclo[3.1.1]heptan-6-yl}-6,7,8,9-tetrahydro-5H-benzo[7]annulen-2-yl]-1H-pyrrolo[2,3-b]pyridin-3-yl}phenyl)pyridin-3-yl]pyrrolidin-2-one]
